Source: PMC6132687, “Stem cells are the most sensitive screening tool to identify toxicity of GATA4-targeted novel small-molecule compounds” (Archives of Toxicology, 2018)

Tests used:
[1] = tested on: GATA4–NKX2-5 transcriptional synergy; test: Luciferase reporter assay of GATA4–NKX2-5 synergistic gene activation in COS-1 cells; type: cell-based, African green monkey; conditions: 24 h treatment, normalized to DMSO
Experimental: COS-1 cells were used to investigate the compound effects on GATA4–NKX2-5 synergistic gene activation using a luciferase reporter assay (Kinnunen et al. [2015]). Toxicity profiling was carried out in eight cell types: the H9c2 myoblast cell line, NRVCs, CFs, mESCs, MEFs, mESC derivatives from day 5 embryoid bodies (D5EBs), hiPSCs and hiPSC-CMs. All cell cultures were maintained at 37 °C in a humidified atmosphere of 5% carbon dioxide (CO2) and the regular growth medium was used for compound exposures. Cell culture methods and cardiomyocyte differentiation from human pluripotent stem cells are described in Supplementary Information.
The empty expression plasmid MT2 (pMT2) and mouse Gata4 expressing pMT2-Gata4 plasmids were gifts from D. B. Wilson (Department of Pediatrics, St. Louis Children’s Hospital) (Arceci et al. [1993]). The luciferase reporter plasmid pGL3-3xHA containing three Nkx2-5 high-affinity binding sites has been described previously (Kinnunen et al. [2015]). To create mouse Nkx2-5 expressing pMT2-Nkx2-5, the cDNA was cloned from pFLCI-Nkx2-5 (clone D330001C20, Imagenes), which was a kind gift from R. Kerkelä (University of Oulu, Finland), with primers containing the EcoRI restriction site (forward: 5′-[…]-3′ and reverse 5′-[…]-3′) and ligated to pMT2 EcoRI site. The correct clone was identified by digestion with specific restriction enzymes and the sequence was verified by DNA sequencing (DNA Sequencing and Genomics Laboratory, Institute of Biotechnology, University of Helsinki, Finland).
COS-1 cells grown on 96-well plates were transfected with the luciferase reporter plasmid pGL3-3xHA (100 ng/well) and equal amounts of expression vectors pMT2-Gata4 and pMT2-Nkx2-5 (total of 50 ng/well) using Fugene 6 (Promega) at a reagent:DNA ratio of 3:1. Cells transfected with either pMT2, pMT2-Gata4 or pMT2-Nkx2-5 were used to confirm synergistic transactivation of the reporter gene in all experiments. After 6 h of transfection, the cells were treated with compounds or vehicle (0.1% dimethyl sulfoxide, DMSO) and the luminescence was measured 24 h later using Neolite Reporter Gene Assay System (PerkinElmer, Turku, Finland) according to manufacturer’s instructions and Victor2 plate reader (PerkinElmer, Turku, Finland). Each compound was tested in three technical replicates in at least two independent experiments.
A luciferase reporter assay with an artificial promoter containing three high-affinity binding sites for NKX2-5 was used to evaluate the effects of the compounds on GATA4–NKX2-5 transcriptional synergy (Kinnunen et al. [2015]). We have previously shown that while GATA4 alone induces only minimal activation of this promoter, it strongly potentiates NKX2-5-mediated transactivation (Kinnunen et al. [2015]; Välimäki et al. [2017]).

[2] = tested on: stem cell and progenitor cell viability; test: Toxicity classification from MTT screening across cell types; conditions: based on effects on stem cell and progenitor cell viability
Experimental: The cells were exposed to the test compounds for 24 h and cytotoxicity was quantified with MTT and LDH assays as described previously (Talman et al. [2011]). For the determination of cell membrane integrity, 50 µl of medium from each well was transferred onto a new 96-well plate followed by addition of 50 µl of substrate solution containing 1.3 mM β-nicotinamide adenine dinucleotide, 660 µM iodonitrotetrazolium, 54 mM L(+)-lactic acid, 280 µM phenazine methosulphate and 0.2 M Tris–HCl (pH 8.0). After a 30-min incubation, the reaction was stopped by adding 50 µl of 1 M acetic acid to each well and absorbance was measured at 490 nm using Victor2 plate reader (PerkinElmer, Turku, Finland). Spontaneous LDH release was measured from untreated cells, maximal LDH release from cells lysed with 0.9% Triton X-100 and background absorbance was measured from wells without cells. After background extraction, cytotoxicity was calculated as follows: cytotoxicity (%) = [(sample − spontaneous LDH release)/(maximal LDH release − spontaneous LDH release)] × 100. For quantification of metabolic activity, 3-(4,5-dimethylthiazol-2-yl)-2,5-diphenyltetrazolium bromide (MTT) was added to the cells at a final concentration of 0.5 mg/ml followed by 2 h incubation in cell culture conditions. The medium was then aspirated and formazan crystals were solubilized in DMSO. Absorbance was measured at 550 nm and absorbance at 650 nm was subtracted as background.
When comparing the effects of different compounds within each individual cell type, the compounds can be grouped into two main classes: toxic (3i-1000, 3i-1120, 3i-1148 and 3i-1229) and non-toxic (3i-1047, 3i-1051, 3i-1165, and 3i-1228) compounds. Based on the hiPSC toxicity data, 3i-1148 can be considered as the most toxic compound with an IC50 of 0.30 µM (Fig. 5b).

| SMILES | effect on GATA4- and NKX2-5-induced gene activation (luciferase reporter activity) [1] | toxicity class (toxic / non-toxic) [2] |
| --- | --- | --- |
| CCN(CC)c1ccc(NC(=O)c2ccsc2)cc1 [3i-1051] | ineffective | non-toxic |
| CCN(CC)c1ccc(NC(=O)c2c(-n3cccc3)sc(C)c2C)cc1 [3i-1165] | only a weak effect | non-toxic |
| CCN(CC)c1ccc(NC(=O)c2c(-c3coc(C)n3)noc2C)cc1 [3i-1228] | ineffective | non-toxic |
